Ends that are not written are not given here. * marks the point of attachment. SO3H = O=S(=O)(O)*
Tests used:
Storage stability = format: physicochemical; conditions: under argon at −20° C.
Experimental: After reaction with acetic acid, the resulting free base was isolated as its solid acetate salt followed by lyophilization. M-DNR-Ac is stable for at least 12 months under argon at −20° C.
The methanolic solution was evaporated to dryness under reduced pressure at 25° C., resulting in a red oily residue, which was dissolved in dry methanol. To this solution, dry ether was added and the precipitated red solid isolated by centrifugation. […] (6-Maleimidocaproyl)hydrazone of Morphlinyldaunorubicin acetate is stable for at least 4 months under argon at −20° C.

primary AML cells = assay: Semisolid clonogenic assay, primary AML patient samples; format: cell-based, human
Experimental: 3.2 Cytotoxicity of Y1-IgGM-DNR Derivative (FIG. 12-14): The specific cytotoxic effect of Y1-drug conjugates was assessed in semisolid (METHOCULT™; StemCell Technologies Inc., Vancouver BC, Canada) clonogenic assays. Cells (CD34+ stem cells from cord blood or primary AML patient samples) were incubated with free or conjugated drugs at concentrations of up to 10^−6M for 1 hour at 37° C. The cells were washed, seeded in METHOCULT™ and grown for 10-12 days, after which colonies were counted. Bovine (b)-IgG-M-DNR was used as a non-specific conjugate control.

primary B-CLL cells [1] = assay: CDC against mononuclear cells from B-CLL patients; format: cell-based, human; conditions: presence and absence of 25% of the patients' plasma
Experimental: For CDC experiments, mononuclear cells from B-CLL patients were separated on FICOLL®. Cells were incubated with or without Y1-IgG or control antibodies for 24 hours in the presence or absence of the patient's plasma. Apoptotic cells were then stained with Annexin-PI and analyzed by FACS.
Mononuclear cells from B-CLL patients were incubated with Y1-IgG, Rituximab or Campath® in the presence and absence of 25% of the patients' plasma. […] Neither Rituximab nor Y1-IgG induced cytotoxicity via complement fixation.

[2] = test system: Y1-scFv binding to platelets; assay: Y1-scFv platelet binding assay, inhibition by synthetic GPIb peptides
Experimental: Briefly, peptides were synthesized by solid phase methodology using an ABIMED AMS-422 multiple peptide synthesizer, and as required, tyrosine sulfate was incorporated using FMOC-Try sodium salt. Synthetic peptides were purified using a Lichrosorb RP-18 column. For the Y1-scFv platelet binding assay, a mixture of synthetic peptide (2.5, 25 or 200 μM) and Y1-scFv (10 μg) was incubated with […]. Following washing, platelets were incubated with R-phycoerythrin labeled-anti scFv, washed and analyzed by FACS.

primary B-CLL cells [3] = assay: Y1-IgG-mediated ADCC by PBMC effector cells against primary B-CLL cells; format: cell-based
Experimental: For ADCC experiments, mononuclear effector and target cells were separated on FICOLL®. Target cells were then labeled with PKH26, which stably incorporates a fluorescent dye within the lipid regions of the cell membranes. Cells were then washed and incubated with effector cells at various Effector:Target (E:T) ratios, in the absence or presence of different concentrations of Y1-IgG or control antibodies for 24 hours. Dead cells were stained by TOPRO®(Molecular Probes, Inc., Eugene, Oreg.): and analyzed by FACS on gated target cells.
To determine if Y1-IgG mediates ADCC in primary B-CLL, B-CLL cells from different patients were co-incubated for 24 hours with PBMC effector cells at different effector/target cell ratios. […] Variation may be attributed to the effector cell samples obtained from different healthy donors, as well as to differences among the B-CLL samples.

[4] = molecular target: PSGL-1 (P-Selectin Glycoprotein Ligand-1) (human) (UniProt Q14242); assay: cell-based or functional assay
Chain of UniProt Q14242 (Q14242 42-412): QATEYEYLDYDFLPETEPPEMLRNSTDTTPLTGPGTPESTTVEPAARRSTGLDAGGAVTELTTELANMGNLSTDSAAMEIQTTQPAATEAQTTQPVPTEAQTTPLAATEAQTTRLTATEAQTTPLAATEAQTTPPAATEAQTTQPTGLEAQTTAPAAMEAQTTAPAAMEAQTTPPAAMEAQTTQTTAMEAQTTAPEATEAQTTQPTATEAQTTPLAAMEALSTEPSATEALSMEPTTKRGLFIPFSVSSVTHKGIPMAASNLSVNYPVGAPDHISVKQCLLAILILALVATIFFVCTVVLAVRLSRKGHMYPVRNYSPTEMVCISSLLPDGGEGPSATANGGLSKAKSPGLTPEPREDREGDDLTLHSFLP

[5] = substitution mutant peptides based on DLY^SDYYPE (FIG. 17B), concentration not given

With `CC(=O)O.COc1cccc2c1C(=O)c1c(O)c3c(c(O)c1C2=O)C[C@@](O)(C(C)=NNC(=O)CCCCCN1C(=O)C=CC1=O)C[C@@H]3O[C@H]1C[C@H](N2CCOCC2)[C@H](O)[C@H](C)O1` [(6-Maleimidocaproyl)hydrazone of Morphlinyldaunorubicin acetate] the “stable for” value (Storage stability) was “at least 4 months”.

For `COc1cccc2c1C(=O)c1c(O)c3c(c(O)c1C2=O)C[C@@](O)(C(C)=O)C[C@@H]3O[C@H]1C[C@H](N2CCOCC2)[C@H](O)[C@H](C)O1` [M-DNR, 3′-Deamino-3′-(4-morpholinyl)daunorubicin], the “colony formation relative to control, AML-M4 cells” value (primary AML cells; 1 μM) was “did not give rise to colonies”, the “colony formation relative to control, AML-M5 cells” value (primary AML cells; 1 μM) was “did not give rise to colonies” and the “viability of primary AML cells relative to the control” value (primary AML cells; AML sample M7 megakaryocytic leukemia, 0.1 μM) was 80%.

With `CC(=O)O.COc1cccc2c1C(=O)c1c(O)c3c(c(O)c1C2=O)C[C@@](O)(C(C)=O)C[C@@H]3O[C@H]1C[C@H](N2CCOCC2)[C@H](O)[C@H](C)O1` [M-DNR-Ac, 3′-Deamino-3′-(4-morpholinyl)daunorubicin acetate] the “stable for” value (Storage stability) was “at least 12 months”.

For “Campath®: commercially available humanized antibody which binds CD52”, the “cytotoxicity via CDC” value (primary B-CLL cells [1]) was “mediated cytotoxicity of primary B-CLL cells via CDC”.

With “DAY^SDYYPE (DAY(SO3H)DYYPE) [Leu-275 replaced by Ala]” the “inhibition of Y1-scFv binding to platelets” value (“inhibition of Y1-scFv binding” below) [2, 5] was “inhibited Y1-scFv binding to platelets”.

With “DLEDYYPE [sulfated Tyr-276 replaced with Glu]” the “inhibition of Y1-scFv binding” value [2, 5] was “no substantial inhibition”.

With DLYDYYPE [non-sulfated control peptide] the “inhibition of Y1-scFv binding” value ([2]; peptide 200 μM) was “no effect”.

With “DLYDYY^SPE (DLYDYYPE; not fully specified (residue 6)) [sulfated at the third tyrosine]” the “inhibition of Y1-scFv binding” value ([2]; peptide 200 μM) was “no effect”.

With “DLYDY^SY^SPE (DLYDY(SO3H)Y(SO3H)PE) [sulfated at the second and third tyrosines]” the “inhibition of Y1-scFv binding” value ([2]; peptide 200 μM) was “no effect”.

In the case of “DLY^SAYYPE (DLY(SO3H)AYYPE) [Asp-277 replaced by Ala]”, the “inhibition of Y1-scFv binding” value [2, 5] is reported as “substantially incapable of inhibiting”.

For “DLY^SDAYPE (DLY(SO3H)DAYPE) [substitution mutant peptide, amino acids 278 to 280]”, the “inhibition of Y1-scFv binding” value [2, 5] was “inhibited Y1-scFv binding to platelets”.

In the case of “DLY^SDFYPE (DLY(SO3H)DFYPE) [substitution mutant peptide, amino acids 278 to 280]”, the “inhibition of Y1-scFv binding” value [2, 5] is reported as “inhibited Y1-scFv binding to platelets”.

In the case of “DLY^SDYYAE (DLY(SO3H)DYYAE) [substitution mutant peptide, amino acids 278 to 280]”, the “inhibition of Y1-scFv binding” value [2, 5] is reported as “inhibited Y1-scFv binding to platelets”.

For “DLY^SDYYPA (DLY(SO3H)DYYPA) [substitution mutant peptide, amino acids 278 to 280]”, the “inhibition of Y1-scFv binding” value [2, 5] was “inhibited Y1-scFv binding to platelets”.

For “DLY^SDYYPE (DLY(SO3H)DYYPE) [sulfated at the first tyrosine]”, the “inhibition of Y1-scFv binding” value ([2]; peptide 25 μM) was “effectively inhibited”.

With “DLY^SDYY^SPE (DLY(SO3H)DYY(SO3H)PE) [sulfated at the first and third tyrosines]” the “inhibition of Y1-scFv binding” value ([2]; peptide 25 μM) was “effectively inhibited”.

In the case of “DLY^SDY^SYPE (DLY(SO3H)DY(SO3H)YPE) [sulfated at the first and second tyrosines]”, the “inhibition of Y1-scFv binding” value ([2]; peptide 25 μM) is reported as “effectively inhibited”.

With “DLY^SDY^SY^SPE (DLY(SO3H)DY(SO3H)Y(SO3H)PE) [GPIb-based peptide comprising 3 sulfated tyrosines]” the “inhibition of Y1-scFv binding” value ([2]; peptide 25 μM) was “effectively inhibited”.

For “DLY^SEYYPE (DLY(SO3H)EYYPE) [Asp-277 replaced by Glu]”, the “inhibition of Y1-scFv binding” value [2, 5] was “substantially incapable of inhibiting”.

With “DLY^SNYYPE (DLY(SO3H)NYYPE) [Asp-277 replaced by Asn]” the “inhibition of Y1-scFv binding” value [2, 5] was “substantially incapable of inhibiting”.

With “Rituximab: commercially available humanized antibody which binds CD20” the “concentration at which saturation of receptor molecules on the target cells was achieved” value (primary B-CLL cells [3]) was “not by the same concentration” and the “cytotoxicity via CDC” value (primary B-CLL cells [1]) was “Neither”.

mouse anti-PSGL-1 antibody KPL1 showed an inhibition of ML2 cell rolling on rh-P-Selectin (1 µg/ml) at all shear forces [4] of 100%.

From patent publication US20050152906A1, “Specific human antibodies” (priority 2003, published 2005)
